Results taken from EP2908837B1, “COMPOSITIONS FOR DRUG DELIVERY” (priority 2012, dated 2014).
Non-standard residues stand in square brackets, D forms with d. Residues, ends and D or L forms follow the SMILES beside them.

Assay: In vitro plasma stability (half-life) in freshly collected mouse blood, LC-MS/MS
Type: in vitro ADME
Details: up to 8 hours at 37°C in Swiss (CD-I) mouse blood, analyte quantified in the plasma fraction
Method: In vitro plasma stability (i.e. half-life or t1/2) of the peptides of the invention was also assessed. Briefly, each peptide was incubated up to 8 hours at 37°C in freshly collected Swiss (CD-I) mouse blood and the analyte was quantified in the plasma fraction at several time-points using a liquid chromatography-tandem mass spectrometry (LC-MS/MS) analytical method. […]

SMILES | half-life
CSCC[C@@H]1NC(=O)[C@H](N)CSSC(C)(C)[C@@H](C(=O)O)NC(=O)CNC(=O)[C@H](CCCNC(=N)N)NC(=O)[C@H](CC(C)C)NC(=O)[C@H](CCCNC(=N)N)NC(=O)[C@@H]2CSCN2C1=O [SEQ ID NO: 1, (D)-Cys-Met-Thz-Arg-Leu-Arg-Gly-Pen] | 240 min
CSCC[C@@H]1NC(=O)[C@H](N)CSSC(C)(C)[C@@H](C(=O)O)NC(=O)CN(C)C(=O)[C@H](CCCNC(=N)N)NC(=O)[C@H](CC(C)C)NC(=O)[C@H](CCCNC(=N)N)NC(=O)[C@@H]2CSCN2C1=O [SEQ ID NO: 2, (D)-Cys-Met-Thz-Arg-Leu-Arg-Sar-Pen] | 294 min
CSCC[C@@H]1NC(=O)[C@H](N)CSSC[C@@H](C(=O)O)NC(=O)CN(C)C(=O)[C@H](CCCNC(=N)N)NC(=O)[C@H](CC(C)C)NC(=O)[C@H](CCCNC(=N)N)NC(=O)[C@@H]2CCCCN2C1=O [SEQ ID NO: 3, (D)-Cys-Met-Pip-Arg-Leu-Arg-Sar-Cys] | 354 min
CSCC[C@@H]1NC(=O)[C@H](N)CSSC(C)(C)[C@@H](C(=O)O)NC(=O)CNC(=O)[C@H](CCCNC(=N)N)NC(=O)[C@H](CC(C)C)NC(=O)[C@H](CCCNC(=N)N)NC(=O)[C@@H]2CCCCN2C1=O [SEQ ID NO: 4, (D)-Cys-Met-Pip-Arg-Leu-Arg-Gly-Pen] | 234 min
CSCC[C@@H]1NC(=O)[C@H](N)CSSC(C)(C)[C@@H](C(=O)O)NC(=O)CN(C)C(=O)[C@H](CCCNC(=N)N)NC(=O)[C@H](CC(C)C)NC(=O)[C@H](CCCNC(=N)N)NC(=O)[C@@H]2CCCCN2C1=O [SEQ ID NO: 5, (D)-Cys-Met-Pip-Arg-Leu-Arg-Sar-Pen] | 552 min

Assay: In situ brain perfusion, cerebral transfer coefficient (Kin)
Type: in vivo, mouse
Details: in situ brain perfusion 2-5 min, perfusate flow rate 2 ml/min
Method: The in situ brain perfusion technique (in adult male OF1 mouse) is used to illustrate passage in the brain across the BBB.
Radioactive peptides with high specific radioactivity (RAS, up to 100 Ci/mmol) are prepared by a strategy of acylation of the N-term amine function by tritiated propionic (or propanoic) anhydride or tritiated N-propionyl-succinimide (NPS).
The techniques briefly summarized below were developed previously to study the distribution in the brain of active substances and, in particular, the role of the BBB and, more particularly, of LDLR in the penetration of these molecules in the brain. In situ brain perfusion techniques are among the most technically demanding and the most difficult to perform in the mouse. […]
This strategy of in situ brain perfusion normally carried out in the rat was adapted for mouse (Dagenais et al., 2000, J Cereb Blood Flow Metab., 20(2), 381-6) in order to broaden its application for evaluating the parameters of transport kinetics at the BBB and the blood-retinal barrier, and this also in transgenic and KO mutant mice for the receptors, enzymes or transporters of active substances. […] The duration of the fixed flow-rate perfusion is monitored. […]

SMILES | Kin (transfer coefficient)
CC(C)C[C@H](NC(=O)[C@H](Cc1ccccc1)NC(=O)CNC(=O)[C@@H](C)NC(=O)[C@@H](N)Cc1ccc(O)cc1)C(=O)N[C@@H](CCCNC(=N)N)C(=O)O [Dalargine] (H-Y[dA]GFLR-OH) | ≈ 0.9 x 10^-4 ml/s/g
